# Test results: article PMC3489957 (Bioorganic & medicinal chemistry, 2012)
# Legend:
# [1] = Cytotoxicity in Vero cells; format: cell-based; conditions: African green monkey, Vero kidney cells
# in vitro = conditions: human, lymphocytic CEM cells
# [2] = Cytotoxicity in uninfected PHA-stimulated human PBM cells; format: cell-based; conditions: uninfected phytohemagglutinin-stimulated PBM cells
SMILES,IC50 [1],IC50 (in vitro),IC50 [2]
"CC(C)(C)OC(=O)N1[C@H](CO)CC(F)(F)[C@H]1n1ccc(=O)[nH]c1=O [Analogue 18a, 1-[(2S,5S)-N-tert-Butyloxycarbonyl-3,3-difluoro-5-(hydroxymethyl)pyrrolidin-2-yl]-uracil]",> 100 µM,> 100 µM,–
"CC(C)(C)OC(=O)N1[C@H](CO)CC(F)(F)[C@H]1n1cc(F)c(=O)[nH]c1=O [Analogue 18d, 1-[(2S,5S)-N-tert-Butyloxycarbonyl-3,3-difluoro-5-(hydroxymethyl)pyrrolidin-2-yl]-5-fluorouracil]",> 100 µM,> 100 µM,–
"CC(C)(C)OC(=O)N1[C@H](CO)CC(F)(F)[C@@H]1n1ccc(=O)[nH]c1=O [Analogue 19a, 1-[(2R,5S)-N-tert-butyloxycarbonyl-3,3-difluoro-5-(hydroxymethyl)pyrrolidin-2-yl]-uracil]",–,> 100 µM,–
"CC(C)(C)OC(=O)N1[C@H](CO)CC(F)(F)[C@@H]1n1cc(F)c(=O)[nH]c1=O [Analogue 19d, 1-[(2R,5S)-N-tert-Butyloxycarbonyl-3,3-difluoro-5-(hydroxymethyl)pyrrolidin-2-yl]-5-fluorouracil]",> 100 µM,> 100 µM,–
"CC(C)(C)OC(=O)N1[C@H](CO)CC(F)(F)[C@@H]1n1cnc2c(Cl)ncnc21 [Analogue 26, 9-[(2R,5S)-N-tert-Butyloxycarbonyl-3,3-difluoro-5-(hydroxymethyl)pyrrolidin-2-yl]-6-chloropurine]",> 100 µM,–,–
"CC(C)(C)OC(=O)N1[C@H](CO)CC(F)(F)[C@H]1n1cnc2c(Cl)ncnc21 [Analogue 27, 9-[(2S,5S)-N-tert-Butyloxycarbonyl-3,3-difluoro-5-(hydroxymethyl)pyrrolidin-2-yl]-6-chloropurine]",> 100 µM,–,–
"CC(C)(C)OC(=O)N1[C@H](CO)CC(F)(F)[C@@H]1n1cnc2ncnc(Cl)c21 [Analogue 28, 7-[(2R,5S)-N-tert-Butyloxycarbonyl-3,3-difluoro-5-(hydroxymethyl)pyrrolidin-2-yl]-6-chloropurine]",> 100 µM,–,–
"CC(C)(C)OC(=O)N1[C@H](CO)CC(F)(F)[C@H]1n1cnc2ncnc(Cl)c21 [Analogue 29, 7-[(2S,5S)-N-tert-Butyloxycarbonyl-3,3-difluoro-5-(hydroxymethyl)pyrrolidin-2-yl]-6-chloropurine]",> 100 µM,–,–
"CC(C)(C)OC(=O)N1[C@H](CO)CC(F)(F)[C@@H]1n1cnc2c(N)ncnc21 [Analogue 30, 9-[(2R,5S)-N-tert-Butyloxycarbonyl-3,3-difluoro-5-(hydroxymethyl)pyrrolidin-2-yl]-adenine]",> 100 µM,> 100 µM,> 100 µM
"CC(C)(C)OC(=O)N1[C@H](CO)CC(F)(F)[C@H]1n1cnc2c(N)ncnc21 [Analogue 31, 9-[(2S,5S)-N-tert-Butyloxycarbonyl-3,3-difluoro-5-(hydroxymethyl)pyrrolidin-2-yl]-adenine]",> 100 µM,> 100 µM,> 100 µM
"CC(C)(C)OC(=O)N1[C@H](CO)CC(F)(F)[C@@H]1n1cnc2ncnc(N)c21 [Analogue 32, 7-[(2R,5S)-N-tert-Butyloxycarbonyl-3,3-difluoro-5-(hydroxymethyl)pyrrolidin-2-yl]-adenine]",> 100 µM,> 100 µM,> 100 µM
"CC(C)(C)OC(=O)N1[C@H](CO)CC(F)(F)[C@H]1n1cnc2ncnc(N)c21 [Analogue 33, 7-[(2S,5S)-N-tert-Butyloxycarbonyl-3,3-difluoro-5-(hydroxymethyl)pyrrolidin-2-yl]-adenine]",> 100 µM,> 100 µM,> 100 µM
